Read-outs that look alike come from different tables or passages of the source. Values belong to the compound of their own block, whether it stands above or below them.
Experiments:
CYP450 2C9 = target: T1, CYP450 2C9 (Homo sapiens, UniProt P11712); test: Inhibition of human liver microsome CYP450 enzyme 2C9; type: in vitro ADME
T1 construct: from tissue; host or cells: human liver microsomes
Experimental: (§1) 100 mM K-Buffer: 9.5 mL of stock solution A was mixed with 40.5 mL of stock solution B, the total volume was adjusted to 500 mL with ultrapure water, and the buffer was titrated to pH 7.4 with KOH or H3PO4. • Starting material A (1 M potassium dihydrogen phosphate): 136.5 g of potassium dihydrogen phosphate in 1 L of water; • Stock solution B ([…]): 174.2 g of potassium dihydrogen phosphate in 1 L of water.
(§2) The test substance powder was prepared into a stock solution at a certain concentration with DMSO or another organic solvent, which was then further diluted with a suitable organic solvent.
(§3) The liver microsomal in vitro incubation system for the CYP450 enzyme metabolism phenotype study was a biochemical reaction of the prepared liver microsomes supplemented with a redox coenzyme and an enzyme-specific selective inhibitor under simulated physiological temperature and physiological environment conditions.
(§4) The concentration of the parent drug or a metabolite thereof in the incubation solution was determined by LC-MS/MS. and the IC50 value was calculated.

[1] = Pharmacokinetic assay in mice; type: in vivo, Balb/c mice; conditions: mouse; for F: PO 10mpk vs IV 2mpk; for AUC(0-inf) / AUC(0-t) / C0 / MRT inf / Vd / Cmax / Tmax: plasma; for MRT inf: read-out: MRT(0-∞); for Vd: read-out: Vz
In short: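 Male Balb/c mice (6–8 weeks) were dosed 2 mg/kg IV by tail vein or 10 or 100 mg/kg by oral gavage, with the PO group fasted overnight. Orbital blood was taken from 0.083 (IV only) to 24 h for plasma. Cmax, Tmax, CL, Vss, AUC, t1/2 and bioavailability were derived from concentration–time data.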

SDMA = SDMA Inhibition Assay in HCT-116 cells; type: cell-based; conditions: Homo sapiens, HCT-116, 96 hours
CYP450 2C19 = target: T2, CYP450 2C19 (Homo sapiens, UniProt P33261); test: Inhibition of human liver microsome CYP450 enzyme 2C19; type: in vitro ADME
T2 construct: from tissue; host or cells: human liver microsomes
T2 sequence (P33261 whole entry): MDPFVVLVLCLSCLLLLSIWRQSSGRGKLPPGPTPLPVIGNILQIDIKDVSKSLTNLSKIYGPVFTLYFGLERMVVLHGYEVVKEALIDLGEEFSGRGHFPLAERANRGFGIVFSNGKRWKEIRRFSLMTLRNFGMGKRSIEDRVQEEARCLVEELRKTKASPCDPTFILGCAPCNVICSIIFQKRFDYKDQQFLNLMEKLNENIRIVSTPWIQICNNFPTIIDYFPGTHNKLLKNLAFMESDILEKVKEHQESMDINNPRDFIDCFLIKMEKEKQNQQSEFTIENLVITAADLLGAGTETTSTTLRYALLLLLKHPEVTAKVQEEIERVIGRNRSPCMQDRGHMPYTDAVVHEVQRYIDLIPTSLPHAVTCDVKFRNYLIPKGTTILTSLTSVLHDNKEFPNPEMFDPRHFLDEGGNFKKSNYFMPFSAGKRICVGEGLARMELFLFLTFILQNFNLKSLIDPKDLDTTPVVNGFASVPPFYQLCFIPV
Experimental: as §1, §2, §3, §4

CYP450 1A2 = target: T3, CYP450 1A2 (Homo sapiens, UniProt P05177); test: Inhibition of human liver microsome CYP450 enzyme 1A2; type: in vitro ADME
T3 construct: from tissue; host or cells: human liver microsomes
T3 sequence (P05177 1-516): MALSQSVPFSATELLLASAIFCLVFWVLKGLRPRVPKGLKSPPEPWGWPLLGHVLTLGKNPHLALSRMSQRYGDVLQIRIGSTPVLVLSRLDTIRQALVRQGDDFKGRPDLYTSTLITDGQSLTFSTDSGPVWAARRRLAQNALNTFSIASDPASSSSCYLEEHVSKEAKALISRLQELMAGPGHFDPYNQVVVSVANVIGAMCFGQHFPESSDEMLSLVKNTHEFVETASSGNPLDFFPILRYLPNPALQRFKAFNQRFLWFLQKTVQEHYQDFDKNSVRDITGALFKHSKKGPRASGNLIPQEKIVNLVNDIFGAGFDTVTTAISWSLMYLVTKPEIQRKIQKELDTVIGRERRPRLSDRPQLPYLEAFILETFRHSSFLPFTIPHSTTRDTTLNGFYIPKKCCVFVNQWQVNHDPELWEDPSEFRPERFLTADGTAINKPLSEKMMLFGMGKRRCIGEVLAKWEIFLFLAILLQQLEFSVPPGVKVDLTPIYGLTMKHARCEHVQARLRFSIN
Experimental: as §1, §2, §3, §4

HCT-116-MTAP^-/- cells = test: Pharmacodynamic study, HCT-116-MTAP^-/- subcutaneous xenograft; type: in vivo, mouse; conditions: HCT-116-MTAP^-/- xenograft
Experimental: Human colon cancer HCT-116-MTAP^-1- cells were cultured in monolayer in vitro using the McCoy 5A culture medium (HyClone) containing 10% fetal bovine serum (BI) and 1% penicillin and streptomycin (Beyotime) in an incubator at 37 °C with 5% CO2. The cells were digested with trypsin 2 to 3 times weekly for passaging. When the saturation degree of the cells was 80% to 90%, the cells were collected, counted, and inoculated. 5 × 10^6 (0.1 mL) HCT-116-MTAP^-/- cells were subcutaneously inoculated on the right back of each mouse. On about day 15 after inoculation of the cells, the mean tumor volume reached 172 mm^3. The mice were randomly grouped for administration (the animals were divided into an administration group and a control group, with 6 animals in each group). The day of grouping was designated as d0, and intragastric administration was started on d1. The administration was performed once daily at an administration volume of 10 mL/kg. Vehicle control was administered to the control group. The tumor volume was measured 2 to 3 times weekly, and meanwhile, the mice were weighed and the data were recorded; daily observations were made to record the body surface signs of the mice. After the experiment was completed, the tumors were collected, weighed, and photographed for recording.
Calculation formula for tumor volume: Tumor volume (mm^3) = 1/2 × (a×b^2) [formula] (note: a represents long diameter and b represents short diameter) [formula]

[2] = male, Balb/c, 10 mg/kg, PO 10mpk

T1 sequence (P11712 whole entry): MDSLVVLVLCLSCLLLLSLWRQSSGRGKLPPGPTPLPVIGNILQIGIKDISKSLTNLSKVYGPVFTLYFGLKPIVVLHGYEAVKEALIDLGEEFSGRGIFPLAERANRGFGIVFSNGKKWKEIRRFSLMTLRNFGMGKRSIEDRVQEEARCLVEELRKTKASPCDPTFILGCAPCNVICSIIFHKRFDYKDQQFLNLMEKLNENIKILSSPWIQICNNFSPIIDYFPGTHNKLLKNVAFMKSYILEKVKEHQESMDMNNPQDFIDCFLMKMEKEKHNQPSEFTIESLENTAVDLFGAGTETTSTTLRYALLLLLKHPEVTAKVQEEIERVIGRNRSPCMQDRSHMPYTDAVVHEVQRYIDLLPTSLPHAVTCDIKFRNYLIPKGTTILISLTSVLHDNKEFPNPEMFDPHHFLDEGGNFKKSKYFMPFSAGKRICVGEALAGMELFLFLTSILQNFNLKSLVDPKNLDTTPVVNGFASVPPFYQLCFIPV

Compound: Cn1ncc2c(N)nc3cc(F)c(C(=O)N4CCOC[C@@H]4c4ccc5c(c4)OC(F)(F)O5)cc3c21 [Example I-7]
IC50 (CYP450 2C9; human, microsomes, pH 7.4): > 10 µM
CLz ([1]; IV 2mpk): 13 mL/min/kg
R_AUC(t/∞) ([1]; IV 2mpk): 95.1%
t1/2z ([1]; IV 2mpk): 1.9 h
R_AUC(t/∞) ([1]; PO 10mpk): 97.1%
t1/2z ([1]; PO 10mpk): 4.9 h
F [1]: 159.9%
AUC(0-inf) ([1]; 2 mg/kg, IV 2mpk): 4.89 µM·h
AUC(0-t) ([1]; 2 mg/kg, IV 2mpk): 4.65 µM·h
C0 ([1]; 2 mg/kg, IV 2mpk): 2.62 µM
MRT inf ([1]; 2 mg/kg, IV 2mpk): 2.7 h
Vd ([1]; 2 mg/kg, IV 2mpk): 2.3 L/kg
AUC(0-inf) ([1]; 10 mg/kg, PO 10mpk): 39.1 µM·h
AUC(0-t) ([1]; 10 mg/kg, PO 10mpk): 38 µM·h
Cmax ([1]; 10 mg/kg, PO 10mpk): 5.01 µM
Tmax ([1]; 10 mg/kg, PO 10mpk): 2 h
MRT inf ([1]; 10 mg/kg, PO 10mpk): 6.1 h
EC50 (SDMA): 0.181 µM
IC50 (CYP450 2C19; human, microsomes, pH 7.4): > 10 µM
IC50 (CYP450 1A2; human, microsomes, pH 7.4): > 10 µM
Day 28 TGI (HCT-116-MTAP^-/- cells; 10 mpk PO QD): 84%
Day 28 TGI (HCT-116-MTAP^-/- cells; 30 mpk PO QD): 91%

Compound: Cn1ncc2c(N)nc3cnc(C(=O)N4CCOC[C@@H]4c4ccc5c(c4)OC(F)(F)O5)cc3c21 [Example I-38]
AUC(0-t) ([1]; 2 mg/kg, IV 2mpk): 7.87 µM·h
AUC(0-t) ([1]; 100 mg/kg, PO 100mpk): 710 µM·h
Cmax ([1]; 100 mg/kg, PO 100mpk): 52.1 µM
EC50 (SDMA): 0.147 µM

IC50 (CYP450 2C9; human liver microsomes, 2C9, read-out: IC50): > 10 µM
AUC(0-inf) ([1]; male, Balb/c, 2 mg/kg, IV 2mpk): 6.37 µM·h
AUC(0-t) ([1]; male, Balb/c, 2 mg/kg, IV 2mpk): 6.24 µM·h
C0 ([1]; male, Balb/c, 2 mg/kg, IV 2mpk): 1.96 µM
MRT inf ([1]; male, Balb/c, 2 mg/kg, IV 2mpk): 4.9 h
Vd ([1]; male, Balb/c, 2 mg/kg, IV 2mpk): 4.3 L/kg
AUC(0-inf) [1, 2]: 34.5 µM·h
AUC(0-t) [1, 2]: 34.4 µM·h
Cmax [1, 2]: 4.76 µM
Tmax [1, 2]: 1 h
MRT inf [1, 2]: 5.2 h
CLz ([1]; IV 2mpk): 12 mL/min/kg
R_AUC(t/∞) ([1]; IV 2mpk): 97.9%
t1/2z ([1]; IV 2mpk): 4.4 h
R_AUC(t/∞) ([1]; PO 10mpk): 99.6%
t1/2z ([1]; PO 10mpk): 3.1 h
F [1]: 108%
EC50 (SDMA): 0.201 µM
IC50 (CYP450 2C19; human liver microsomes, 2C19, read-out: IC50): > 10 µM
IC50 (CYP450 1A2; human liver microsomes, 1A2, read-out: IC50): > 10 µM
Compound: Cn1ncc2c(N)nc3cc(F)c(C(=O)N(Cc4ccc5c(c4)OC(F)(F)O5)C4CC4)cc3c21 [Example I-16]
Day 28 TGI (HCT-116-MTAP^-/- cells; 10 mpk PO QD): 75%
Day 28 TGI (HCT-116-MTAP^-/- cells; 30 mpk PO QD): 92%
